Laboratory results taken from patent US11932850B2, “Cancer chemoprevention with STAT3 blockers” (Jill M. Siegfried, LLC, priority 2018, dated 2024).

Assays:
[1] = test system: p-STAT3, p-NFkB, VEGF, CD31, IL-6, COX2 in lungs
A549 cells = test system: A549 cells
Protocol: NSCLC cell lines (201T and H1975) were transfected with CS3D or CS3M (cyclic STAT3 mutant decoy) at concentrations ranging from 0 nM to 600 nM. Using MTS assays, cell viabilities were assessed 72 hours later. Three independent experiments were performed, using 24-well plates and 4 wells/concentration.
To determine the concentration of CS3D required to inhibit cell viability, increasing concentrations of CS3D was transfected, and after 72 hours, MTS assays were used to assess cell viability. Data were normalized to cells treated with lipofectamine alone.
Fluorescently-labeled CS3M and CS3D (with iFluor) were also produced using enzymatic ligation as described above and used to assess uptake efficiency. Transfections of the cyclic oligonucleotides were performed using Lipofectamine 2000 (Life Technologies) in opti-MEM media (Life Technologies) as follows: Cells were plated at […] confluency, and exposed to transfection media containing the respective circularized oligonucleotides for 24 hours at 37° C. […]
Dose-response experiments assessing the relative number of metabolically active viable cells were performed by transfecting cells with increasing concentrations of CS3D or CS3M, followed by performance of MTS assays. […] The plates were then read at 490 nm in a Synergy microplate reader (BioTek, Winooski, Vermont) using Gen5 2.05 software. […]

[2] = test system: c-Myc mRNA in H1975 cells; test: RT-qPCR of c-Myc mRNA after EGF, H1975; format: cell-based, human; conditions: single transfection, EGF 10 ng/ml 1.5 hr
201T xenografts = test: 201T NSCLC xenograft tumor growth; format: in vivo, nude mice
Protocol: Based on the in vitro effects of CS3D, antitumor effects were evaluated in mice harboring established NSCLC xenografts (10 tumors/group). When tumors reached 200 mm3, mice were given daily intravenous injections (tail vein) of CS3D or CS3M (5 mg/kg/d), 5 days per week, and tumor growth was monitored for 14-20 days. CS3D caused a significant and robust tumor growth inhibition in 201T- and H1975-derived xenografts compared to treatment with CS3M.
FIGS. 7A and 7B show CS3D suppresses NSCLC xenograft tumor growth. Intravenous delivery of CS3D inhibits tumor growth in both wild-type (FIG. 7A, 201T) and mutant EGFR T790M (FIG. 7B, H1975) xenografts. Approximately 1×10^6 cells were inoculated subcutaneously in the flanks of nude mice. Following the development of palpable tumors (about […]), mice were randomized and given daily injections of either CS3D or CS3M (5 mg/kg/day; 10 tumors/group). Experiments were done twice as biological replicates. Tumor volumes were recorded every other day while animal weights were also monitored during the course of the treatment. […]
All studies were approved by the University of Minnesota Institutional Animal Care and Use Committee and were carried out in accordance with institutional guidelines for animal care. […] Volumes were calculated from the formula V=(Length×Width^2)/2. […]

201T cells = test: Soft agar colony forming assay, 201T; format: cell-based, human
Source text: 1 hr after treatment with EGF.
Following the transfection protocol described above, cells transfected with either CS3D or CS3M were detached from the plate using Trypsin-EDTA (Life Technologies) and seeded at a density of 2×10^4 cells/well (in a 6-well plate) in soft agar to determine the ability of cells to grow in an anchorage-independent setting. Sea Plaque Agarose (Lonza—Rockland, Maine) was used to prepare 0.8% base agarose layer and a 0.48% upper agarose layer containing the transfected cells. 1 ml of appropriate growth media was added into each well and incubated at growth conditions of 37° C. with 5% CO2. Media was replaced every 3-4 days and colony formation was monitored. After 15-20 days, the media was aspirated, and wells were incubated with crystal violet in 10% formalin for 1 h. Using a dissecting scope, colonies were photographed in a 6-well plate (with 4 quadrants/well) using ImageJ software analysis to automatically count colonies, using 35 pixels as a cut-off.

NNK-induced lung tumors = test: NNK lung cancer chemoprevention pilot experiment; format: in vivo; conditions: 5 mg/kg IV 5 days a wk for 18 wks
Protocol: In a pilot experiment, 6 FVB/N mice were given 24 mg NNK (3 mg by ip injection, twice a wk×4 wks), followed by 6 wks rest, then IV treatment of 3 mice with either 5 mg/kg CS3D or CS3M 5 days a wk for 18 wks. […] With CS3M, lungs were filled with multiple invasive adenocarcinomas, while in mice receiving CS3D, tumor burden was reduced over 80%. H&E (hematoxylin and eosin) sections were taken of murine lungs exposed to NNK followed by treatment with CS3M or CS3D for 18 wks. Invasive carcinomas were prominent with CS3M and lacking with CS3D.

[3] = molecular target: T1, pSTAT3-ubiquitin complexes in H1975 cells (Homo sapiens, UniProt P40763); test: p-STAT3 immunoprecipitation and ubiquitin immunoblot; format: cell-based; conditions: H1975, 100 nM, 24 hr post-transfection
T1 construct: Post-transfection with either 100 nM CS3D or CS3M, H1975 were lysed in IP lysis buffer; endogenous in cells; host or cells: H1975
T1 sequence (P40763 2-770 limits assumed, one chain of several): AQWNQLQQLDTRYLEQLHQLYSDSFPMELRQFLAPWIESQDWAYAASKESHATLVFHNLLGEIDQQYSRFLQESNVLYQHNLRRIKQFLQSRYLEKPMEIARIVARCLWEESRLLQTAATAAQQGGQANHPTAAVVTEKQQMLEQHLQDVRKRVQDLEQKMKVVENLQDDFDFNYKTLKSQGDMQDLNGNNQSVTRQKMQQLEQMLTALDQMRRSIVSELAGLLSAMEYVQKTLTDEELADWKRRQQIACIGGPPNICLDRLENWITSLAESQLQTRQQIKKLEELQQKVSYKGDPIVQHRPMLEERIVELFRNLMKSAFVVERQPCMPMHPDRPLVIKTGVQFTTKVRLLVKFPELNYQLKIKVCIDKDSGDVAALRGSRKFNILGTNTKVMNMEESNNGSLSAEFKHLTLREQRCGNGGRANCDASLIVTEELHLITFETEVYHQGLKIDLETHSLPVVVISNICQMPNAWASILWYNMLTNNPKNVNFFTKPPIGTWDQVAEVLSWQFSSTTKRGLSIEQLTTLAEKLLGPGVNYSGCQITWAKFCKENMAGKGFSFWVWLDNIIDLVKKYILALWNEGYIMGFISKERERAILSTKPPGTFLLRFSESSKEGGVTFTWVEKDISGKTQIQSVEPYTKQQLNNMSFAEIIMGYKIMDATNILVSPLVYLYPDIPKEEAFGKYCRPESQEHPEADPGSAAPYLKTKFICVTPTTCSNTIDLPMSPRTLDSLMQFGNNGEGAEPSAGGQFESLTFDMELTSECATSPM

c-Myc mRNA in 201T cells = test: RT-qPCR of c-Myc mRNA after EGF, 201T; format: cell-based, human; conditions: single transfection, EGF 10 ng/ml 1.5 hr
[4] = 8 weeks post-treatment, vs CS3M

CS3D (DNA GATTTACGGGAAATGCSCATTTCCC; cyclic decoy with two hexaethylene glycol linkers, further chemistry not given here)
IL-6 levels in the airways ([1]; 8 weeks after completion of therapy, vs CS3M): upregulated
COX-2 expression ([1]; 8 weeks after end of treatment, vs CS3M): increase
VEGF staining in the airways [1, 4]: decrease
activated phospho-STAT3 protein [1, 4]: long-term reduction
phospho-NF-kB activation [1, 4]: decrease
endothelial marker CD31 expression ([1]; premalignant stage, data not shown): suppresses
IC50 (A549 cells): 300 nM
inhibition in mRNA level of c-Myc [2]: 25-30%
reduction in tumor growth (tumor volume) (201T xenografts; 201T xenograft, 5 mg/kg/d iv, 5 days per week, compared to CS3M): 96.5%
tumor growth inhibition at 14 days (201T xenografts; both KRAS WT cell lines (201T and H1975), as reported (Njatcha et al 2017)): over 85%
disruption of anchorage-independent growth (201T cells; 300 nM single transfection, at 20 days, 201T, compared to CS3M): 50%
reduction of colony formation in soft agar (201T cells; one transfection, 201T (FIG. 4A)): 55%
toxic effects (NNK-induced lung tumors): no discernable toxic effects
reduction of tumor burden (NNK-induced lung tumors; 24 mg NNK, 6 wks rest, vs CS3M): over 80%
ratio of pSTAT3-ubiquitin complex to STAT3 (densitometry) [3]: 0.95
inhibition in mRNA level of c-Myc (c-Myc mRNA in 201T cells): 50%
